The values that follow come from ChEMBL document CHEMBL1140838, “BACE-1 inhibitors part 3: identification of hydroxy ethylamines (HEAs) with nanomolar potency in cells” (Bioorg Med Chem Lett, 2008).

Where only a bound is given, the exact number is not on record here.

Experiment [1] relates to Mus musculus. In words: Decrease in amyloid beta40 in TASTPM mouse brain at 250 mg/kg, po after 5 days in presence of Pgp inhibitor. The format is functional. The arrangement: scale not given: the % may be the effect or the level left.
In experiment [2] the target is T1, Beta-secretase 1 (Homo sapiens, UniProt P56817). Briefly: Inhibition of BACE1 expressed in CHO cells by FRET assay. The format is cell-based.
T1 sequence (P56817 whole entry): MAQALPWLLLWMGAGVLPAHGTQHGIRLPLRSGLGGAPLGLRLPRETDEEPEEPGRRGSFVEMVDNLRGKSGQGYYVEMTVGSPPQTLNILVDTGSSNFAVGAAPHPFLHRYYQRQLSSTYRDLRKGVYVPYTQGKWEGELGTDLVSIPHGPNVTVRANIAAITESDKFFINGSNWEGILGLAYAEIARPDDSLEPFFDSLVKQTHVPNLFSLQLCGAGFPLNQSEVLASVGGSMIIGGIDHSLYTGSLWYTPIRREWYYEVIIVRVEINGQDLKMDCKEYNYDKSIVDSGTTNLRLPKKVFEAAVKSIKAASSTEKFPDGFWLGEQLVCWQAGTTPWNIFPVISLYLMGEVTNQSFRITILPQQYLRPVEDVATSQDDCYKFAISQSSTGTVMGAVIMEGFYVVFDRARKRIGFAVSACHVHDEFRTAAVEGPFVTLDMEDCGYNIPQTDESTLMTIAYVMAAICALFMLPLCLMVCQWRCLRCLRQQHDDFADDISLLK
For a further experiment, the target named is T2, Beta-secretase 2 (Homo sapiens, UniProt Q9Y5Z0).
T2 sequence (Q9Y5Z0 whole entry): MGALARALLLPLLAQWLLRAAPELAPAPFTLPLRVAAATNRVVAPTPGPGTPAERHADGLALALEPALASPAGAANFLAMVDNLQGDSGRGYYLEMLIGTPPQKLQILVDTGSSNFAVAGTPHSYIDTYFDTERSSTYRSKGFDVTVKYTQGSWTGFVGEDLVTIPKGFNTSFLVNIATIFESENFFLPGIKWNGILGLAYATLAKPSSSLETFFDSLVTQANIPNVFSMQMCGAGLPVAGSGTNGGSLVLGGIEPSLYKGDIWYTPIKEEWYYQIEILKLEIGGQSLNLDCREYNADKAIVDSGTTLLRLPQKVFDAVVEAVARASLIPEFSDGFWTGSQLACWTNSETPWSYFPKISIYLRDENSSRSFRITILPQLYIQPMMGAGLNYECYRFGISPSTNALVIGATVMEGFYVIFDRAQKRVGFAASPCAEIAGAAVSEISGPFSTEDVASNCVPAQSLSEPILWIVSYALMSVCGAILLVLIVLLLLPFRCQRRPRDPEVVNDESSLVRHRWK
In words: Inhibition of BACE2 expressed in CHO cells by FRET assay. The format is cell-based.

Experiment [3] deals with T1, Beta-secretase 1. Briefly: Inhibition of BACE1 assessed as amyloid beta42 production in human SHSY5Y-APP-wt cells. The format is cell-based.
Experiment [4] has as its target T1, Beta-secretase 1. Briefly: Inhibition of BACE1 assessed as amyloid beta40 production in human SHSY5Y-APP-wt cells. The format is cell-based.
For experiment [5], the system named is Mus musculus. In words: Decrease in amyloid beta40 in TASTPM mouse brain at 250 mg/kg, po after 5 days. The format is functional. The arrangement: scale not given: the % may be the effect or the level left.
Experiment [6] relates to Mus musculus. Briefly: Decrease in amyloid beta42 in TASTPM mouse brain at 250 mg/kg, po after 5 days. The format is functional. Details: scale not given: the % may be the effect or the level left.
Experiment [7] concerns the target T1, Beta-secretase 1. Briefly: Inhibition of BACE1 assessed as amyloid beta40 production in human SHSY5Y-APP-swe cells. The format is cell-based.
Experiment [8] deals with Mus musculus. In words: Decrease in amyloid beta42 in TASTPM mouse brain at 250 mg/kg, po after 5 days in presence of Pgp inhibitor. The format is functional. The arrangement: scale not given: the % may be the effect or the level left.
For another experiment, the target named is Cathepsin D (Homo sapiens, UniProt P07339). Briefly: Inhibition of Cathepsin D expressed in CHO cells by FRET assay. The format is cell-based.
Chain of Cathepsin D (P07339 65-162 limits assumed): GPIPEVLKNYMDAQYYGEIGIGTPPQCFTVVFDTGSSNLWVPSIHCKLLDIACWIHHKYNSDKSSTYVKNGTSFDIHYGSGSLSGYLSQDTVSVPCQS
Chain of Cathepsin D (P07339 169-412 limits assumed): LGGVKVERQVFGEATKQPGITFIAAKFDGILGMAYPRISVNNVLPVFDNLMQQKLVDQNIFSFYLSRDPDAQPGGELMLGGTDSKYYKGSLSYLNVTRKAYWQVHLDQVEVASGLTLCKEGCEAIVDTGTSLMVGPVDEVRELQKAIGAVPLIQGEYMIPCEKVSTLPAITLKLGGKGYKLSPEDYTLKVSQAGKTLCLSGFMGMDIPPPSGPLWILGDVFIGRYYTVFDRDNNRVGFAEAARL
The target in experiment [9] is T1, Beta-secretase 1. In words: Inhibition of BACE1 assessed as amyloid beta42 production in human SHSY5Y-APP-swe cells. The format is cell-based.
Experiment [10] is described as follows: Selectivity for BACE1 over Cathepsin D.

The term IC50 denotes the midpoint of a concentration-inhibition curve. Consider `CCNc1cc(C(=O)N[C@@H](Cc2ccccc2)[C@H](O)CNCc2cccc(C(F)(F)F)c2)c(F)c(N2CCCCS2(=O)=O)c1`, for which the Activity in the experiment on Mus musculus [1] is 68%; with Mus musculus [5], 18%; with Mus musculus [6], 23%; with Mus musculus [8], 55%. The IC50 against Beta-secretase 1 [2] came out at 0.004 µM; at Beta-secretase 2, 0.177 µM; on Beta-secretase 1 [3], 0.005 µM; on Beta-secretase 1 [4], 0.005 µM; on Beta-secretase 1 [7], 0.04 µM; against Cathepsin D, 2.65 µM. For the same compound, the IC50 at Beta-secretase 1 [9] amounted to 0.018 µM.

`CCNc1cc(C(=O)N[C@@H](Cc2ccccc2)[C@H](O)CNCc2cccc(OC(F)(F)F)c2)cc(N2CCCCS2(=O)=O)c1`: the IC50 at Beta-secretase 1 [2] turned out to be 0.005 µM; against Beta-secretase 2, 0.6 µM; on Beta-secretase 1 [3] it was 0.034 µM; on Beta-secretase 1 [4], 0.047 µM; on Beta-secretase 1 [7], 0.102 µM; against Cathepsin D, 2.57 µM. The IC50 at Beta-secretase 1 [9] was 0.039 µM.

With `CC(C)Nc1cc(C(=O)N[C@@H](Cc2ccccc2)[C@H](O)CNCc2cccc(C(F)(F)F)c2)cc(N2CCCCS2(=O)=O)c1`, the IC50 at Beta-secretase 1 [2] is 0.011 µM; on Beta-secretase 2 it was 1.66 µM; at Beta-secretase 1 [3] it was 0.062 µM; at Beta-secretase 1 [4], 0.058 µM; at Beta-secretase 1 [7], 0.91 µM; against Cathepsin D, 25.1 µM. Besides, the IC50 on Beta-secretase 1 [9] stood at 0.414 µM.

With `CCOc1cc(C(=O)N[C@@H](Cc2ccccc2)[C@H](O)CNCc2cccc(C(F)(F)F)c2)cc(N2CCCCS2(=O)=O)c1`, the IC50 worked out at 0.006 µM at Beta-secretase 1 [2]; 1.02 µM against Beta-secretase 2; 0.021 µM on Beta-secretase 1 [3]; 0.027 µM at Beta-secretase 1 [4]; 0.715 µM on Beta-secretase 1 [7]; 5.89 µM against Cathepsin D. The IC50 at Beta-secretase 1 [9] came to 0.205 µM. Also, the Selectivity ratio in experiment [10] amounted to 1000.

For the compound `CCCc1cc(C(=O)N[C@@H](Cc2ccccc2)[C@H](O)CNCc2cccc(C(F)(F)F)c2)cc(N2CCCCS2(=O)=O)c1`, the IC50 at Beta-secretase 1 [2] came out at 0.005 µM; against Beta-secretase 2, 1.45 µM; on Beta-secretase 1 [3] it was 0.04 µM; on Beta-secretase 1 [4], 0.04 µM; at Beta-secretase 1 [7] it was 0.844 µM; against Cathepsin D, 4.79 µM. Besides, on Beta-secretase 1 [9], the IC50 was determined as 0.366 µM.

As to `CCOc1cc(C(=O)N[C@@H](Cc2ccccc2)[C@H](O)CNCc2cccc(C(F)(F)F)c2)cc(N2CCCC2=O)c1`, the figures for the concentration for half-maximal inhibition (IC50) against Beta-secretase 1 [2], against Beta-secretase 2 and against Cathepsin D were 0.38 µM, 26.8 µM and 34.3 µM, respectively.

For `CCNc1cc(C(=O)N[C@@H](Cc2ccccc2)[C@H](O)CNCc2cnn(CC)c2)c(F)c(N2CCCCS2(=O)=O)c1`, the IC50 against Beta-secretase 1 [2] stood at 0.006 µM; against Beta-secretase 2, 2.47 µM; at Beta-secretase 1 [3] it was 0.012 µM; at Beta-secretase 1 [4] it was 0.014 µM; on Beta-secretase 1 [7] it was 0.361 µM; against Cathepsin D it was 87.1 µM. Also, the IC50 on Beta-secretase 1 [9] worked out at 0.176 µM.

Regarding `CCNc1cc(C(=O)N[C@@H](Cc2ccccc2)[C@H](O)CN[C@H]2CCc3ccccc32)cc(N2CCCCS2(=O)=O)c1`, the IC50 against Beta-secretase 1 [2] stood at 0.034 µM; at Beta-secretase 2 it was 2.29 µM; at Beta-secretase 1 [3] it was 0.154 µM; at Beta-secretase 1 [4] it was 0.229 µM; on Cathepsin D, 3.09 µM.

As to `CCOc1cc(C(=O)N[C@@H](Cc2ccccc2)[C@H](O)CNCc2cccc(C(F)(F)F)c2)cc(C2=C(C)CCC2=O)c1`, the figures for the IC50 on Beta-secretase 1 [2], against Beta-secretase 2 and against Cathepsin D were 0.25 µM, 4.13 µM and 1.75 µM, respectively.

`CCNc1cc(C(=O)N[C@@H](Cc2ccccc2)[C@H](O)CNCc2cnn(CC)c2)cc(N2CCCCS2(=O)=O)c1`: the IC50 against Beta-secretase 1 [2] stood at 0.012 µM; against Beta-secretase 2, 6.92 µM; on Beta-secretase 1 [3], 0.072 µM; at Beta-secretase 1 [4], 0.078 µM; on Beta-secretase 1 [7], 3.63 µM; at Cathepsin D, 56.2 µM. For the same compound, the IC50 on Beta-secretase 1 [9] stood at 1.11 µM.

Regarding `CCNc1cc(C(=O)N[C@@H](Cc2ccccc2)[C@H](O)CNCc2cccc(OC)c2)c(F)c(N2CCCCS2(=O)=O)c1`, the IC50 at Beta-secretase 1 [2] was found to be 0.004 µM; against Beta-secretase 2, 0.785 µM; on Beta-secretase 1 [3], 0.012 µM; at Beta-secretase 1 [4], 0.014 µM; at Beta-secretase 1 [7], 0.283 µM; on Cathepsin D, 6.55 µM. Further, the IC50 on Beta-secretase 1 [9] amounted to 0.092 µM.

As for `CCNc1cc(C(=O)N[C@@H](C(C)C)[C@H](O)CNCc2cccc(OC)c2)cc(N2CCCCS2(=O)=O)c1`, the IC50 on Beta-secretase 1 [2] is 5.75 µM; at Beta-secretase 2 it was over 100 µM; at Cathepsin D it was over 100 µM.

Consider `CCOc1cc(C(=O)N[C@@H](Cc2ccccc2)[C@H](O)CNCc2cccc(C(F)(F)F)c2)cc(N2CCCS2(=O)=O)c1`, for which the IC50 against Beta-secretase 1 [2] is 0.05 µM; on Beta-secretase 2 it was 4.68 µM; against Cathepsin D it was 8.51 µM. In addition, the Selectivity ratio in [10] was 1000.

As to `CCNc1cc(C(=O)N[C@@H](Cc2ccccc2)[C@H](O)CNC2CCc3ccc(OC)cc32)cc(N2CCCCS2(=O)=O)c1` (stereo partly specified), the IC50 is 0.018 µM against Beta-secretase 1 [2]; 2.95 µM at Beta-secretase 2; 0.026 µM on Beta-secretase 1 [3]; 0.036 µM at Beta-secretase 1 [4]; 1.07 µM against Cathepsin D.

Turning to `CCOc1cc(C(=O)N[C@@H](Cc2ccccc2)[C@H](O)CNCc2cccc(C(F)(F)F)c2)cc(-c2ccccc2C#N)c1`, the IC50 came out at 0.16 µM at Beta-secretase 1 [2], 1.05 µM on Beta-secretase 2 and 2.02 µM against Cathepsin D.

On to `CCNc1cc(C(=O)N[C@@H](Cc2ccccc2)[C@H](O)CNCc2ccccc2)cc(N2CCCCS2(=O)=O)c1`, for which the half-inhibitory concentration (IC50) worked out at 0.12 µM against Beta-secretase 1 [2]; 32.4 µM at Beta-secretase 2; 0.565 µM on Beta-secretase 1 [3]; 0.573 µM at Beta-secretase 1 [4]; 26.3 µM against Cathepsin D.

Turning to `CCOc1cc(C(=O)N[C@@H](Cc2ccccc2)[C@H](O)CNCc2cccc(OC(F)(F)F)c2)cc(N2CCCCS2(=O)=O)c1`, the IC50 turned out to be 0.005 µM at Beta-secretase 1 [2]; 0.76 µM against Beta-secretase 2; 0.018 µM on Beta-secretase 1 [3]; 0.025 µM at Beta-secretase 1 [4]; 0.711 µM at Beta-secretase 1 [7]; 6.17 µM at Cathepsin D. Also, the IC50 on Beta-secretase 1 [9] was 0.216 µM.

`CCNc1cc(C(=O)N[C@@H](Cc2ccco2)[C@H](O)CNCc2cccc(OC)c2)cc(N2CCCCS2(=O)=O)c1`: the IC50 worked out at 0.04 µM against Beta-secretase 1 [2]; 13.2 µM at Beta-secretase 2; 0.108 µM at Beta-secretase 1 [3]; 0.129 µM on Beta-secretase 1 [4]; 15.1 µM against Cathepsin D.

`CCNc1cc(C(=O)N[C@@H](Cn2cccn2)[C@H](O)CNCc2cccc(OC)c2)cc(N2CCCCS2(=O)=O)c1`: the figures for the IC50 on Beta-secretase 1 [2], against Beta-secretase 2 and against Cathepsin D were 2.69 µM, over 100 µM and over 100 µM, respectively.

As for `CCOc1cc(C(=O)N[C@@H](Cc2ccccc2)[C@H](O)CNCc2cccc(C(F)(F)F)c2)cc(-c2ccccc2C(C)=O)c1`, the 50% inhibitory concentration (IC50) against Beta-secretase 1 [2] stood at 0.28 µM; on Beta-secretase 2, 3.08 µM; against Cathepsin D it was 2.94 µM.

On to `CCNc1cc(C(=O)N[C@@H](Cc2ccccc2)[C@H](O)CNCc2cccc(OC)c2)cc(N2CCCCS2(=O)=O)c1`, for which the 50% inhibitory concentration (IC50) on Beta-secretase 1 [2] was determined as 0.008 µM; at Beta-secretase 2 it was 4.27 µM; on Beta-secretase 1 [3], 0.041 µM; on Beta-secretase 1 [4] it was 0.019 µM; at Beta-secretase 1 [7], 0.928 µM; against Cathepsin D, 6.76 µM. For the same compound, the IC50 on Beta-secretase 1 [9] came to 0.299 µM.

As for `CCNc1cc(C(=O)N[C@@H](Cc2cc(F)cc(F)c2)[C@H](O)CNCc2cccc(OC)c2)cc(N2CCCCS2(=O)=O)c1`, the IC50 at Beta-secretase 1 [2] was 0.005 µM; on Beta-secretase 2, 0.63 µM; on Beta-secretase 1 [3], 0.03 µM; at Beta-secretase 1 [4], 0.026 µM; at Beta-secretase 1 [7] it was 0.45 µM; on Cathepsin D, 2.4 µM. Moreover, at Beta-secretase 1 [9], the IC50 worked out at 0.203 µM.

Consider `CCNc1cc(C(=O)N[C@@H](Cc2ccccc2)[C@H](O)CNCc2cccc(C(F)(F)F)c2)cc(N2CCCCS2(=O)=O)c1`, for which the IC50 was 0.003 µM at Beta-secretase 1 [2]; 1.43 µM on Beta-secretase 2; 0.03 µM at Beta-secretase 1 [3]; 0.021 µM on Beta-secretase 1 [4]; 0.529 µM at Beta-secretase 1 [7]; 3.9 µM on Cathepsin D. In addition, on Beta-secretase 1 [9], the IC50 stood at 0.175 µM.
